Assay results published in patent US20240182513A1, “SEPARATION OF METAL IONS FROM A SAMPLE USING GLYCOLIPIDS” (ARIZONA BOARD OF REGENTS ON BEHALF OF THE UNIVERSITY OF …, priority 2021, published 2024).

Experiments:
[1] = Example 2.1 rhamnolipid precipitation, filtration, centrifugation: lanthanum; conditions: for Treatment 2: Rhamnolipid and Filtration Cf / Treatment 3: Rhamnolipid and Centrifugation Cc / Treatment 1: Rhamnolipid Only Cr: lanthanum concentration after treatment; for Treatment 1: Rhamnolipid Only (Rr) efficiency of removal / Treatment 2: Rhamnolipid and Filtration (Rf) efficiency of removal / Treatment 3: Rhamnolipid and Centrifugation (Rc) efficiency of removal: lanthanum
Procedure: (§1) Structural variants of synthetic glycolipids were used to show the effect of the number and length of the hydrophobic tail(s) on rhamnolipid as a chemical precipitant. […] Solutions (10 mM) were made using nanopure water (≥18 MΩ-cm) then adjusted to a pH of 6.9±0.05 with HNO3 and NaOH. These solutions were made in advance and stored in the cold room for up to one month. They were brought to room temperature before each experiment.
(§2) Three metals were tested for binding with rhamnolipid. Lead as […] (Fisher Scientific, Waltham, MA, 99% purity), was chosen to represent a metal with high rhamnolipid-metal conditional stability constant; lanthanum as La(NO3)3 6(H2O) (Sigma-Aldrich, St. Louis, MO, 99.99% purity) was chosen as a representative REE; and magnesium as Mg(NO3)2 6(H2O) (Sigma-Aldrich, St. Louis, MO, 99% purity) was chosen to represent a metal with a low rhamnolipid-metal conditional stability constant (Hogan et al., 2017). Metal solutions (5 mM) were made using nanopure water (≥18 MΩ-cm) in 20 ml glass scintillation vials. All solutions were used within 15 min to ensure minimal adsorption to the glass vial.
(§3) Three glycolipid-based treatments were evaluated to remove metal from solution: (1) the addition of glycolipid with no further treatment (gravitational precipitation), (2) the addition of a glycolipid followed by filtration or (3) the addition of a glycolipid followed by centrifugation. Each metal (Pb, La, and Mg) was evaluated separately with each of the glycolipid structures. For each experiment, a metal solution was mixed with a glycolipid solution in a 1.7 ml reaction tube at varying molar ratios of glycolipid to metal: 0:1 (glycolipid-free control), 2:1, 5:1, and 10:1. The reactions were mixed in the order of nanopure water (≥18 MΩ-cm), glycolipid solution (10 mM), then metal solution (5 mM). The metal and glycolipid solutions were continuously stirred as they were aliquoted into the reaction tubes. The experiment was performed in triplicate.
(§4) The reaction tubes were mixed overnight (16 to 24 h) and then three samples were collected from each tube to measure the effect of each of the three treatments: a glycolipid only treatment sample, a filtration treatment sample, and a centrifugation treatment sample. Briefly, for the glycolipid only treatment samples all tubes were vortexed for approximately 5 sec immediately before removing 0.1 ml into a dilution tube of 2% trace metal grade nitric acid (12 to 14 ml) to minimize the settling of particles. For the filtration samples each reaction tube was vortexed for 5 sec and then a 0.6 ml aliquot was collected with a 1 ml syringe. A GHP acrodisc disk filter (hydrophilic polypropylene membrane, 0.45 μm pore size, 25 mm disc diameter) from Pall Life Sciences (Port Washington, New York) was then placed onto the end of the syringe and the solution was pushed through the filter. The void space in the disk filter holds approximately 0.5 ml, therefore around 0.1 ml of filtrate was collected into a dilution tube. For the centrifugation sample, the remaining solution was centrifuged at 10,000 RCF for 15 min. Approximately 0.1 ml of the supernatant was aliquoted into a dilution tube. Following collection, all samples were taken for metal analysis using ICP-MS.

[2] = Example 2.1 rhamnolipid precipitation, filtration, centrifugation: magnesium; conditions: for Treatment 2: Rhamnolipid and Filtration Cf / Treatment 3: Rhamnolipid and Centrifugation Cc / Treatment 1: Rhamnolipid Only Cr: magnesium concentration after treatment; for Treatment 2: Rhamnolipid and Filtration (Rf) efficiency of removal: magnesium
Procedure: as §1, §2, §3, §4

[3] = Example 2.1 rhamnolipid precipitation, filtration, centrifugation: lead; conditions: for Treatment 2: Rhamnolipid and Filtration Cf / Treatment 3: Rhamnolipid and Centrifugation Cc / Treatment 1: Rhamnolipid Only Cr: lead concentration after treatment; for Treatment 1: Rhamnolipid Only (Rr) efficiency of removal / Treatment 2: Rhamnolipid and Filtration (Rf) efficiency of removal / Treatment 3: Rhamnolipid and Centrifugation (Rc) efficiency of removal: lead
Procedure: as §1, §2, §3, §4

In the case of `CCCCCCCCCCCC(CC(=O)O)OC1O[C@@H](C)[C@H](O)[C@@H](O)[C@H]1O` (stereo partly shown) [Rha C14], the “Treatment 2: Rhamnolipid and Filtration Cf” value ([1]; molar ratio 2 to 1) is reported as 0.164 ± 0.058 mmol/L, the “Treatment 3: Rhamnolipid and Centrifugation Cc” value ([1]; molar ratio 2 to 1) is reported as 0.221 ± 0.014 mmol/L and the “Treatment 1: Rhamnolipid Only Cr” value ([1]; molar ratio 5 to 1) is reported as 0.215 ± 0.024 mmol/L. For the same molecule, the “Treatment 2: Rhamnolipid and Filtration Cf” value ([1]; molar ratio 5 to 1) was 0.044 ± 0.007 mmol/L, the “Treatment 3: Rhamnolipid and Centrifugation Cc” value ([1]; molar ratio 5 to 1) was 0.094 ± 0.002 mmol/L and the “Treatment 1: Rhamnolipid Only Cr” value ([1]; molar ratio 10 to 1) was 0.314 ± 0.016 mmol/L. For the same molecule, the “Treatment 2: Rhamnolipid and Filtration Cf” value ([1]; molar ratio 10 to 1) was 0.0 ± 0.000 mmol/L, the “Treatment 3: Rhamnolipid and Centrifugation Cc” value ([1]; molar ratio 10 to 1) was 0.006 ± 0.001 mmol/L and the “Treatment 1: Rhamnolipid Only Cr” value ([1]; molar ratio rhamnolipid:lanthanum 2 to 1) was 0.247 ± 0.034 mmol/L. For the same molecule, the “Treatment 1: Rhamnolipid Only (Rr) efficiency of removal” value ([1]; molar ratio 2 to 1) was “(16.9%)”, the “Treatment 2: Rhamnolipid and Filtration (Rf) efficiency of removal” value ([1]; molar ratio 2 to 1) was “(44.9%)” and the “Treatment 3: Rhamnolipid and Centrifugation (Rc) efficiency of removal” value ([1]; molar ratio 2 to 1) was “(25.8%)”. For the same molecule, the “Treatment 1: Rhamnolipid Only (Rr) efficiency of removal” value ([1]; molar ratio 5 to 1) was “(27.7%)”, the “Treatment 2: Rhamnolipid and Filtration (Rf) efficiency of removal” value ([1]; molar ratio 5 to 1) was “(85.3%)” and the “Treatment 3: Rhamnolipid and Centrifugation (Rc) efficiency of removal” value ([1]; molar ratio 5 to 1) was “(68.5%)”. The “Treatment 2: Rhamnolipid and Filtration (Rf) efficiency of removal” value ([1]; molar ratio 10 to 1) was 1.0 (99.9%), the “Treatment 3: Rhamnolipid and Centrifugation (Rc) efficiency of removal” value ([1]; molar ratio 10 to 1) was “(98.0%)” and the “Treatment 2: Rhamnolipid and Filtration Cf” value ([2]; molar ratio 2 to 1) was 0.147 ± 0.045 mmol/L. For the same molecule, the “Treatment 3: Rhamnolipid and Centrifugation Cc” value ([2]; molar ratio 2 to 1) was 0.292 ± 0.008 mmol/L, the “Treatment 1: Rhamnolipid Only Cr” value ([2]; molar ratio 5 to 1) was 0.300 ± 0.018 mmol/L and the “Treatment 2: Rhamnolipid and Filtration Cf” value ([2]; molar ratio 5 to 1) was 0.088 ± 0.042 mmol/L. For the same molecule, the “Treatment 3: Rhamnolipid and Centrifugation Cc” value ([2]; molar ratio 5 to 1) was 0.279 ± 0.016 mmol/L, the “Treatment 1: Rhamnolipid Only Cr” value ([2]; molar ratio 10 to 1) was 0.302 ± 0.017 mmol/L and the “Treatment 2: Rhamnolipid and Filtration Cf” value ([2]; molar ratio 10 to 1) was 0.009 ± 0.004 mmol/L. The “Treatment 3: Rhamnolipid and Centrifugation Cc” value ([2]; molar ratio 10 to 1) was 0.219 ± 0.021 mmol/L, the “Treatment 1: Rhamnolipid Only Cr” value ([2]; molar ratio rhamnolipid:magnesium 2 to 1) was 0.291 ± 0.005 mmol/L and the “Treatment 2: Rhamnolipid and Filtration (Rf) efficiency of removal” value ([2]; molar ratio 2 to 1) was “(45.0%)”. The “Treatment 2: Rhamnolipid and Filtration (Rf) efficiency of removal” value ([2]; molar ratio 5 to 1) was “(66.9%)”, the “Treatment 2: Rhamnolipid and Filtration (Rf) efficiency of removal” value ([2]; molar ratio 10 to 1) was “(96.6%)” and the “Treatment 2: Rhamnolipid and Filtration Cf” value ([3]; molar ratio 2 to 1) was 0.031 ± 0.030 mmol/L. For the same molecule, the “Treatment 3: Rhamnolipid and Centrifugation Cc” value ([3]; molar ratio 2 to 1) was 0.194 ± 0.006 mmol/L, the “Treatment 1: Rhamnolipid Only Cr” value ([3]; molar ratio 5 to 1) was 0.315 ± 0.004 mmol/L and the “Treatment 2: Rhamnolipid and Filtration Cf” value ([3]; molar ratio 5 to 1) was 0.000 ± 0.000 mmol/L. The “Treatment 3: Rhamnolipid and Centrifugation Cc” value ([3]; molar ratio 5 to 1) was 0.315 ± 0.006 mmol/L, the “Treatment 1: Rhamnolipid Only Cr” value ([3]; molar ratio 10 to 1) was 0.311 ± 0.008 mmol/L and the “Treatment 2: Rhamnolipid and Filtration Cf” value ([3]; molar ratio 10 to 1) was 0.001 ± 0.001 mmol/L. The “Treatment 3: Rhamnolipid and Centrifugation Cc” value ([3]; molar ratio 10 to 1) was 0.327 ± 0.001 mmol/L, the “Treatment 1: Rhamnolipid Only Cr” value ([3]; molar ratio rhamnolipid:lead 2 to 1) was 0.278 ± 0.011 mmol/L and the “Treatment 1: Rhamnolipid Only (Rr) efficiency of removal” value ([3]; molar ratio 2 to 1) was “(13.3%)”. For the same molecule, the “Treatment 2: Rhamnolipid and Filtration (Rf) efficiency of removal” value ([3]; molar ratio 2 to 1) was “(90.2%)”, the “Treatment 3: Rhamnolipid and Centrifugation (Rc) efficiency of removal” value ([3]; molar ratio 2 to 1) was “(39.4%)” and the “Treatment 1: Rhamnolipid Only (Rr) efficiency of removal” value ([3]; molar ratio 5 to 1) was “(1.6%)”. The “Treatment 2: Rhamnolipid and Filtration (Rf) efficiency of removal” value ([3]; molar ratio 5 to 1) was “(100.0%)”, the “Treatment 3: Rhamnolipid and Centrifugation (Rc) efficiency of removal” value ([3]; molar ratio 5 to 1) was “(1.8%)” and the “Treatment 1: Rhamnolipid Only (Rr) efficiency of removal” value ([3]; molar ratio 10 to 1) was “(3.0%)”. The “Treatment 2: Rhamnolipid and Filtration (Rf) efficiency of removal” value ([3]; molar ratio 10 to 1) was “(99.7%)”.
